Reference: patent US10787444B2, “Compounds for the modulation of myc activity” (Syros Pharmaceuticals, Inc., priority 2015, dated 2020)
Structures can show the parent of a compound that is named as a salt. Where two headings read alike, the source gives them in different places.

Legend:
[1] = target: T1, c-Myc/Max/Ebox DNA (Homo sapiens, UniProt P01106); assay: c-Myc/Max/Ebox DNA AlphaScreen Assay; format: binding; details: calculated IC50 class
T1 construct: his6 (cleaved yes)
Method: Compounds of the invention were assayed for c-Myc/Max/EBox activity as described in the following protocol. Human his6-c-Myc and his6-Max were used with biotinylated DNA containing a single Ebox sequence (biotin[…]) purchased from MWG Operon. Free c-Myc was generated from his6-c-Myc through thrombin cleavage of the his6 tag. For 384-well plate assays, 10 μL of a 2× solution of free c-Myc (20 nM final), Ni^2+ coated Acceptor Beads (25 μg/ml final), and biotinylated Ebox oligo (10 nM final) were added to 384-well plates with a Biotek EL406 liquid handler. 50 nL of compounds from stock plates were added by pin transfer using a Janus Workstation (PerkinElmer), allowing the compounds to interact with c-Myc prior to c-Myc binding with Max. In the current assay, DMSO was not allowed to exceed 2% v/v of the assay. 10 μl of 2× master mix containing streptavidin-coated donor beads (25 μg/ml final) and his6-Max (5 nM) were added. AlphaScreen measurements were performed on an Envision plate reader (PerkinElmer) utilizing the manufacturer's protocol.
Both master mixes were made in room temperature assay buffer (50 mM HEPES, 150 mM NaCl, 0.2% w/v BSA, 0.02% w/v Tween20, 40 μg/ml glycogen, 500 μM DTT, pH 8.0, wherein both DTT and glycogen were added fresh). Alpha beads were added to respective master solutions. All subsequent steps were performed in low light conditions. Solution 1:2× solution of components with final concentrations of c-Myc Ni-coated Acceptor Beads (25 μg/ml), and biotinylated Ebox oligo (10 nM). Solution 2:2× solution of streptavidin-coated donor beads (25 μg/ml final) and his6-Max 10 μL. […] 50 nL of compounds from stock plates were added by pin transfer using a Janus Workstation. Solution 2 (10 μl) was added with the liquid handler. Plates were sealed with foil to block light exposure and prevent evaporation. Plates were very briefly centrifuged followed by 2 hour incubation. […] Excitation was at 680 nm for donor bead release of singlet oxygen and emission was read with a bandpass filter from 520-620 nm.

[2] = test system: human small lung cancer cell line H2171; assay: Cell Viability Assay (ATPlite); format: cell-based; details: H2171 cells, three days, ATPlite, calculated IC50 class, read-out: H2171 Activity
Method: Compounds of the invention were assayed for cell viability using the human small lung cancer cell line H2171 as described in the following protocol. Cells were counted and adjusted to 20,000 cells/mL. Using a Biotek EL406, 50 μL of cells in media were distributed into 384 well white plates from Thermo. Immediately after plating, compound in DMSO was distributed to plates. Compounds were added to plates using a 50 nL 384 well pin transfer manifold on a Janus workstation. Stocks were arrayed in 10 point dose response in DMSO stock in 384 well Greiner compound plates. After the addition of compounds, plates were incubated for three days in a 37° C. incubator. Cell viability was read out using ATPlite from Perkin Elmer. Lyophilized powder was resuspended in lysis buffer and diluted 1:2 with deionized water. 25 μL of this solution was added to each well using the Biotek liquid handler. Plates were incubated for 15 minutes at room temperature before signal was read on an Envision Plate Reader. The data from this assay are summarized in Tables 2 and 3 below (H2171 activity).

[3] = Homo sapiens, NCI-H2171, 72 h, Table 2, compounds of FIG. 1
[4] = Homo sapiens, NCI-H2171, 72 h, Table 3, compounds of FIG. 2

T1 sequence (P01106 whole entry): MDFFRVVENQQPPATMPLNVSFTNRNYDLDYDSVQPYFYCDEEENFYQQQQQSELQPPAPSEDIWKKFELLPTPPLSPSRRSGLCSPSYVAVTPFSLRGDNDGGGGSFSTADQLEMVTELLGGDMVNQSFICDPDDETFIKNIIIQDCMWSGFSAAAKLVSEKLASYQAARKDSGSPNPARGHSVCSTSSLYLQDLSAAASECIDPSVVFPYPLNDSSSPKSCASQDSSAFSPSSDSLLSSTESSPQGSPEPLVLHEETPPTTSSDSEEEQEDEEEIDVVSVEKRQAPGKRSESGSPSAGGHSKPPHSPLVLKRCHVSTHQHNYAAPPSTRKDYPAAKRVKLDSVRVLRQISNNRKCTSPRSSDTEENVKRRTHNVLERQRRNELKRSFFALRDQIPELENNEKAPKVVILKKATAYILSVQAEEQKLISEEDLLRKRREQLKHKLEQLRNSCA

Row | SMILES | IC50 ([1]; Table 2, compounds of FIG. 1) [nM] | IC50 [2, 3] [nM] | further results
1 | CCN(C)CCC(=O)Nc1sc2c(c1-c1nc3ccccc3s1)CCN(C(C)C)C2 [Compound 572] | 300 to 1000 | < 300 | 
2 | CC(=O)Nc1sc2c(c1-c1nc3ccccc3s1)C(C)CNC2 (stereo not drawn) [Compound 205, N-(3-(benzo[d]thiazol-2-yl)-4-methyl-4,5,6,7-tetrahydrothieno[2,3-c]pyridin-2-yl)acetamide] |  |  | IC50 ([1]; Table 3, compounds of FIG. 2): > 10000 nM; IC50 [2, 4]: > 10000 nM
3 | COCCNCCC(=O)Nc1sc2c(c1-c1nc3ccc(-c4ccncc4)cc3s1)CC(C)NC2C (single isomer, unassigned) [Compound 517, N-(5,7-Dimethyl-3-(6-(pyridin-4-yl)benzo[d]thiazol-2-yl)-4,5,6,7-tetrahydrothieno[2,3-c]pyridin-2-yl)-3-((2-methoxyethyl)amino)propanamide] | < 300 | < 300 | 
4 | CC(=O)Nc1sc2c(c1-c1nc3ccccc3s1)C[C@@H](C)N[C@H]2C (relative stereo) [Compound 206, N-(3-(benzo[d]thiazol-2-yl)-cis-5,7-dimethyl-4,5,6,7-tetrahydrothieno[2,3-c]pyridin-2-yl)acetamide] |  |  | IC50 ([1]; Table 3, compounds of FIG. 2): 1000 to 10000 nM; IC50 ([2]; Table 3, compounds of FIG. 2): 1000 to 10000 nM
5 | CCC(=O)NCCC(=O)Nc1sc2c(c1-c1nc3ccccc3s1)CCNC2 [Compound 199, N-(3-(benzo[d]thiazol-2-yl)-4,5,6,7-tetrahydrothieno[2,3-c]pyridin-2-yl)-3-propionamidopropanamide] | 1000 to 10000 | 1000 to 10000 | 
6 | CC(C)NCCC(=O)Nc1sc2c(c1-c1nc3ccc(C4=CCNCC4)cc3s1)CCNC2 [compound 194] | < 300 | < 300 | 
7 | CCC(C)NCCC(=O)Nc1sc2c(c1-c1nc3cc(C(F)(F)F)ccc3s1)CCNC2 (stereo not drawn) [Compound 125, 3-(sec-butylamino)-N-(3-(5-(trifluoromethyl)benzo[d]thiazol-2-yl)-4,5,6,7-tetrahydrothieno[2,3-c]pyridin-2-yl) propanamide] | 300 to 1000 | 300 to 1000 | 
8 | CC(=O)Nc1sc2c(c1-c1nc3cc(N(C)C)ccc3s1)CCNC2 [Compound 230, N-(3-(5-(dimethylamino)benzo[d]thiazol-2-yl)-4,5,6,7-tetrahydrothieno[2,3-c]pyridin-2-yl)acetamide] |  |  | IC50 ([1]; Table 3, compounds of FIG. 2): 1000 to 10000 nM; IC50 [2, 4]: > 10000 nM
9 | CC(C)NCCC(=O)Nc1sc2c(c1-c1nc3ccccc3s1)CC(C)NC2C (single isomer, unassigned) [Compound 198, N-(3-(benzo[d]thiazol-2-yl)-5,7-dimethyl-4,5,6,7-tetrahydrothieno[2,3-c]pyridin-2-yl)-3-(isopropylamino)propanamide] | 1000 to 10000 |  | IC50 ([2]; Table 2, compounds of FIG. 1): < 300 nM
10 | CCc1cccc2nc(-c3c(NC(=O)CCNCCOC)sc4c3CCNC4)sc12 [compound 599] | < 300 | < 300 | 
11 | COCCNCCC(=O)Nc1sc2c(c1-c1nc3ccccc3s1)CC(C)NC2C (single isomer, unassigned) [Compound 509, N-(3-(Benzo[d]thiazol-2-yl)-5,7-dimethyl-4,5,6,7-tetrahydrothieno[2,3-c]pyridin-2-yl)-3-((2-methoxyethyl)amino)propanamide] | 1000 to 10000 |  | IC50 ([2]; Table 2, compounds of FIG. 1): < 300 nM
12 | CC[C@H](C)NCCC(=O)Nc1sc2c(c1-c1nc3cc(C(F)(F)F)ccc3s1)CCN(C(C)C)C2 [Compound 578, (S)-3-(sec-butylamino)-N-(6-isopropyl-3-(5-(trifluoromethyl)benzo[d]thiazol-2-yl)-4,5,6,7-tetrahydrothieno[2,3-c]pyridin-2-yl)propanamide] | 300 to 1000 | < 300 | 
13 | CC(C)NCCC(=O)Nc1sc2c(c1-c1nc3cc(-c4ccncc4)ccc3s1)CCNC2 [Compound 160, 3-(Isopropylamino)-N-(3-(5-(pyridin-4-yl)benzo[d]thiazol-2-yl)-4,5,6,7-tetrahydrothieno[2,3-c]pyridin-2-yl)propanamide dihydrochloride] | 300 to 1000 | 300 to 1000 | 
14 | CCC1Cc2c(sc(NC(=O)CCNCCOC)c2-c2nc3ccccc3s2)C(CC)N1 (single isomer, unassigned) [Compound 536, N-(3-(Benzo[d]thiazol-2-yl)-5,7-diethyl-4,5,6,7-tetrahydrothieno[2,3-c]pyridin-2-yl)-3-((2-methoxyethyl)amino)propanamide] | 300 to 1000 | < 300 | 
15 | CC[C@H](C)NCCC(=O)Nc1sc2c(c1-c1nc3cc(-c4ccncc4)ccc3s1)CCN(CC)C2 [Compound 588, (S)-3-(sec-butylamino)-N-(6-ethyl-3-(5-(pyridin-4-yl)benzo[d]thiazol-2-yl)-4,5,6,7-tetrahydrothieno[2,3-c]pyridin-2-yl)propanamide] | < 300 | < 300 | 
16 | CC(=O)Nc1sc2c(c1-c1nc3ccccc3s1)CCC(NC1CCNCC1)C2 (stereo not drawn) [Compound 227, N-(3-(benzo[d]thiazol-2-yl)-6-(piperidin-4-ylamino)-4,5,6,7-tetrahydrobenzo[b]thiophen-2-yl)acetamide] |  |  | IC50 ([1]; Table 3, compounds of FIG. 2): > 10000 nM; IC50 [2, 4]: < 300 nM
17 | CC(C)NCCC(=O)Nc1sc2c(c1-c1nc3cc(C(=O)N(C)C)ccc3s1)CCNC2 [Compound 322, 2-(2-(3-(Isopropylamino)propanamido)-4,5,6,7-tetrahydrothieno[2,3-c]pyridin-3-yl)-N,N-dimethylbenzo[d]thiazole-5-carboxamide] | 300 to 1000 | < 300 | 

More lines, main results first:

Row | IC50 ([1]; Table 2, compounds of FIG. 1) [nM] | IC50 [2, 3] [nM] | SMILES | further results
18 | < 300 | < 300 | CC(C)NCCC(=O)Nc1sc2c(c1-c1nc3cc(-c4ccc(S(C)(=O)=O)cc4)ccc3s1)CCNC2 [compound 181] | 
19 | < 300 | < 300 | CC[C@@H](C)NCCC(=O)Nc1sc2c(c1-c1nc3cc(C(F)(F)F)ccc3s1)CCN(C(C)C)C2 [Compound 574, (R)-3-(sec-butylamino)-N-(6-isopropyl-3-(5-(trifluoromethyl)benzo[d]thiazol-2-yl)-4,5,6,7-tetrahydrothieno[2,3-c]pyridin-2-yl)propanamide] | 
20 | < 300 | < 300 | COCCNCCC(=O)Nc1sc2c(c1-c1nc3ccc(-c4cc(C)[nH]n4)cc3s1)CCNC2 [compound 355] | 
21 | < 300 | < 300 | CC(C)NCCC(=O)Nc1sc2c(c1-c1nc3c(-c4cccnc4)cccc3s1)CCNC2 [compound 534] | 
22 | < 300 | < 300 | CC(C)NCCC(=O)Nc1sc2c(c1-c1nc3c(S(C)(=O)=O)cccc3s1)CCNC2 [compound 553] | 
23 | < 300 | < 300 | CC(C)NCCC(=O)Nc1sc2c(c1-c1nc3cc(NS(C)(=O)=O)ccc3s1)CCNC2 [compound 581] | 
24 | < 300 | < 300 | COCCNCCC(=O)Nc1sc2c(c1-c1nc3cc(-c4cccc(C(=O)N(C)C)c4)ccc3s1)CCNC2 [compound 394] | 
25 | < 300 | < 300 | CCC(C)NCCC(=O)Nc1sc2c(c1-c1nc3cc(F)ccc3s1)CCN(C(C)C)C2 (stereo not drawn) [Compound 126, 3-(sec-butylamino)-N-(3-(5-fluorobenzo[d]thiazol-2-yl)-6-isopropyl-4,5,6,7-tetrahydrothieno[2,3-c]pyridin-2-yl)propanamide] | 
26 | < 300 | < 300 | COCCNCCC(=O)Nc1sc2c(c1-c1nc3cc(F)ccc3s1)CCNC2 [Compound 189, N-(3-(5-fluorobenzo[d]thiazol-2-yl)-4,5,6,7-tetrahydrothieno[2,3-c]pyridin-2-yl)-3-((2-methoxyethyl)amino)propanamide] | 
27 | < 300 | < 300 | CN(C)CCC(=O)Nc1sc2c(c1-c1nc3ccccc3s1)CCNC2 [Compound 130, N-(3-(benzo[d]thiazol-2-yl)-4,5,6,7-tetrahydrothieno[2,3-c]pyridin-2-yl)-3-(dimethylamino)propanamide] | 
